Measurements from PMC6766931, “Design, Synthesis, and Activity Evaluation of Novel N-benzyl Deoxynojirimycin Derivatives for Use as α-Glucosidase Inhibitors” (Molecules, 2019).

test system: not given; assay: not given; design: method as in earlier work; details: quickly metabolized and excreted; cited from earlier work

Structure (SMILES) | hypoglycaemic effect in vivo
OC[C@H]1NC[C@H](O)[C@@H](O)[C@@H]1O [Compound 1-DNJ, 1-deoxynojirimycin] | no significant hypoglycaemic effect

test system: not given; assay: not given; design: method as in PMID 1475231; details: rats, intravenous administration, biphasic reduction in plasma; cited from earlier work

Structure (SMILES) | initial t1/2 in plasma [min] | terminal t1/2 in plasma [min]
CN1C[C@H](O)[C@@H](O)[C@H](O)[C@H]1CO [N-methyl-DNJ] | 4.5 | 32

same assay, conditions: rats, intravenous, at 120 min after administration; cited from earlier work

Structure (SMILES) | dose recovered from the urine unchanged [%]
CN1C[C@H](O)[C@@H](O)[C@H](O)[C@H]1CO [N-methyl-DNJ] | 80

biological target: T1, α-glucosidase (Saccharomyces cerevisiae, UniProt P53341); assay: Enzyme kinetics study (Michaelis-Menten, non-linear regression); assay type: biochemical; details: inhibitor concentration 0.25 mM, substrate PNPG 0.1-5 mM
T1 construct: purchased Sigma-Aldrich
T1 sequence (P53341 whole entry): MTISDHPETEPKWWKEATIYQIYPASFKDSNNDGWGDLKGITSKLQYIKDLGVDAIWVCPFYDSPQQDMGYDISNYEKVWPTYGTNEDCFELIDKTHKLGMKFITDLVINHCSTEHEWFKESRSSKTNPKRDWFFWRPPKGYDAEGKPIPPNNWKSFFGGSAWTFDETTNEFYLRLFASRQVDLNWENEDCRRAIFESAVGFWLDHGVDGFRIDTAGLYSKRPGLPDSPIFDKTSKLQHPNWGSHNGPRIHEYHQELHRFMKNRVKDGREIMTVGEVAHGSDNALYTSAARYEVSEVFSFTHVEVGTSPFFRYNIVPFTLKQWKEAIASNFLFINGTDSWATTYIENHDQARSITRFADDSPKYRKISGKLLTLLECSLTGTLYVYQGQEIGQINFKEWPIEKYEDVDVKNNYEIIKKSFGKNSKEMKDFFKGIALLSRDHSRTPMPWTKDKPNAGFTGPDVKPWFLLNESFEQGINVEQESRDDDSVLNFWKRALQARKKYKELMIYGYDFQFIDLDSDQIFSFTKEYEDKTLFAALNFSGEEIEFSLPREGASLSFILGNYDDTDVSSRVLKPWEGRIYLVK
Procedure: In the enzyme kinetics studies, the enzyme activity was measured at different times using different concentrations of the substrate p-nitrophenyl α-D-glucopyranoside (0.1, 0.2, 0.8, 1.0, 1.2, 1.6, 1.8, 2.0, 2.5, 5 mM). The kinetics of the enzymatic reaction were fit to the Michaelis‒Menten equation. The Michaelis‒Menten equation is as follows:V = Vmax[S]/(Km + [S]).
In this equation, [S] is the concentration of the substrate, Vmax is the maximum reaction velocity of the enzymatic reaction, and Km is the Michaelis constant. […] Non-linear fitting was performed with the help of Origin 8.5, which can calculate the Vmax and Km values. The Ki constant was determined as follows:Ki = [I]/(K’m/Km − 1).
In this formula, [I] is the concentration of inhibitor, K’m is the Michaelis constant of the experimental group, and Km is the Michaelis constant of the blank group.
The same protocol was followed for the experiments reported in Figure 1 except that the inhibitor concentration was 0.25 mM and the substrate concentration was varied as indicated (0.1, 0.2, 0.8, 1.0, 1.2, 1.6, 1.8, 2.0, 2.5, 5 mM). The Km and Vmax values were calculated using […], and then, the Ki value was calculated using the formula that was mentioned in Section 2.3.

Structure (SMILES) | Vmax
C[C@H]1O[C@H](O[C@H]2[C@H](O)[C@@H](O)[C@@H](O[C@H]3[C@H](O)[C@@H](O)C(O)O[C@@H]3CO)O[C@@H]2CO)[C@H](O)[C@@H](O)[C@@H]1N[C@H]1C=C(CO)[C@@H](O)[C@H](O)[C@H]1O (stereo partly shown) [Acarbose, reference compound] | 4.40 ± 0.42 *10^−6 mmol/min
COc1cc(CN2CC(O)C(O)C(O)C2CO)ccc1O (stereo not shown) [Compound 18a, 1-(4-hydroxy-3-methoxybenzyl)-2-(hydroxymethyl) piperidine-3,4,5-triol] | 3.56 ± 0.28 *10^−6 mmol/min

same assay, conditions: inhibitor concentration 0.25 mM; Ki = [I]/(K'm/Km − 1)

Structure (SMILES) | Ki [mM]
COc1cc(CN2CC(O)C(O)C(O)C2CO)ccc1O (stereo not shown) [Compound 18a, 1-(4-hydroxy-3-methoxybenzyl)-2-(hydroxymethyl) piperidine-3,4,5-triol] | 0.11 ± 0.3

biological target: T1, α-glucosidase; assay: In vitro assay of α-glucosidase inhibitory activity (PNPG, 96-well microplates); assay type: biochemical; details: substrate PNPG, pH 6.8, 37 °C, read-out: IC50 (mM) ± SEM

Structure (SMILES) | IC50 [mM]
OCC1C(O)C(O)C(O)CN1Cc1ccc(F)cc1 (stereo not shown) [Compound 12a, 1-(4-fluorobenzyl)-2-(hydroxymethyl) piperidine-3,4,5-triol] | 9.8 ± 0.31
COc1c(Br)c(Br)c(CN2C[C@H](O)[C@@H](O)[C@H](O)[C@H]2CO)c(Br)c1OC [Compound 17e, 2-(hydroxymethyl)-1-(2,3,6-tribromo-4,5-dimethoxybenzyl)-2-piperidine-3,4,5-triol] | 9.57 ± 0.08
OCC1C(O)C(O)C(O)CN1Cc1cccc(F)c1 (stereo not shown) [Compound 12g, 1-(3-fluorobenzyl)-2-(hydroxymethyl) Piperidine-3,4,5-triol] | 10.23 ± 0.02
OCC1C(O)C(O)C(O)CN1Cc1ccc(I)cc1 (stereo not shown) [Compound 12d, 2-(hydroxymethyl)-1-(4-iodobenzyl) Piperidine-3,4,5-triol] | 9.88 ± 0.05
OCC1C(O)C(O)C(O)CN1Cc1cccc(Br)c1 (stereo not shown) [Compound 12i, 1-(3-bromobenzyl)-2-(hydroxymethyl) Piperidine-3,4,5-triol] | 15.66 ± 0.04
COc1cc(CN2CC(O)C(O)C(O)C2CO)c(Br)c(Br)c1OC (stereo not shown) [Compound 17d, 1-(2,3-dibromo-4,5-dimethoxybenzyl)-2-(hydroxymethyl) Piperidine-3,4,5-triol] | 1.14 ± 0.09
OCC1C(O)C(O)C(O)CN1Cc1ccc(Cl)cc1 (stereo not shown) [Compound 12b, 1-(4-chlorobenzyl)-2-(hydroxymethyl) piperidine-3,4,5-triol] | 11.22 ± 0.02
OCC1C(O)C(O)C(O)CN1Cc1ccc(Br)cc1 (stereo not shown) [Compound 12c, 1-(4-bromobenzyl)-2-(hydroxymethyl) Piperidine-3,4,5-triol] | 12.55 ± 0.03
COc1cccc(CN2CC(O)C(O)C(O)C2CO)c1 (stereo not shown) [Compound 12l, 2-(hydroxymethyl)-1-(3-methoxybenzyl) Piperidine-3,4,5-triol] | 1.25 ± 0.34
OCC1C(O)C(O)C(O)CN1Cc1cccc(Cl)c1 (stereo not shown) [Compound 12h, 1-(3-chlorobenzyl)-2-(hydroxymethyl) Piperidine-3,4,5-triol] | 15.32 ± 0.04
Cc1cccc(CN2CC(O)C(O)C(O)C2CO)c1 (stereo not shown) [Compound 12k, 2-(hydroxymethyl)-1-(3-methylbenzyl) Piperidine-3,4,5-triol] | 10.3 ± 0.21
COc1cc(CN2CC(O)C(O)C(O)C2CO)cc(Br)c1OC (stereo not shown) [Compound 17c, 1-(3-bromo-4,5-dimethoxybenzyl)-2-(hydroxymethyl) Piperidine-3,4,5-triol] | 1.06 ± 0.11
COc1cc(CN2CC(O)C(O)C(O)C2CO)cc(Br)c1O (stereo not shown) [Compound 18b, 1-(3-bromo-4-hydroxy-5-methoxybenzyl)-2-(hydroxymethyl) piperidine-3,4,5-triol] | 0.276 ± 0.13
COc1ccc(CN2CC(O)C(O)C(O)C2CO)cc1 (stereo not shown) [Compound 12f, 2-(hydroxymethyl)-1-(4-methoxybenzyl) Piperidine-3,4,5-triol] | 1.02 ± 0.23
COc1cc(CN2CC(O)C(O)C(O)C2CO)ccc1O (stereo not shown) [Compound 18a, 1-(4-hydroxy-3-methoxybenzyl)-2-(hydroxymethyl) piperidine-3,4,5-triol] | 0.207 ± 0.11
OCC1C(O)C(O)C(O)CN1Cc1cccc(I)c1 (stereo not shown) [Compound 12j, 2-(hydroxymethyl)-1-(3-iodobenzyl) Piperidine-3,4,5-triol] | 10.54 ± 0.04
Cc1ccc(CN2CC(O)C(O)C(O)C2CO)cc1 (stereo not shown) [Compound 12e, 2-(hydroxymethyl)-1-(4-methylbenzyl) Piperidine-3,4,5-triol] | 8.65 ± 0.08
COc1cc(CN2C[C@H](O)[C@@H](O)[C@H](O)[C@H]2CO)cc(Br)c1OCc1ccccc1 [Compound 17b] | 15.68 ± 0.06
